These results are taken from patent US20060211651A1, “Persulfated oligosaccharide acting on selectins and chemokine” (Taisho Pharmaceutical Co., Ltd., priority 2002, published 2006).

The target of assay [1] is T1, L-selectin-Ig (Homo sapiens, UniProt P14151).
T1 construct: purchased R & D Systems Inc
Briefly: Binding of biotinylated oligosaccharide fraction (streptavidin-alkaline phosphatase) to L-selectin-Ig. The settings on record: FIG. 7 panel D; absorbance at 620 nm. The procedure:
(§1) First, each of oligosaccharides was biotinylated with biotin-LC-hydrazide at a reducing end. To each of the fraction a, the fraction c, the fraction e-1 and the fraction e-2 obtained in the above item (2), 125 mM EZ-link™ biotin-LC-hydrazide and 1M NaCNBH3 in dimethyl sulfoxide/acetic acid (7:3) were added. The resulting reaction mixture was incubated at 65° C. for 3 hours, and then incubated at 37° C. for 12.5 to 18.5 hours to biotinylate an oligosaccharide. Each of the resulting reaction products was subjected to Sephadex G-25 column as described above, to remove unreacted biotin-LC-hydrazide, thereby collecting the fraction containing a biotinylated oligosaccharide. Then, the resulting fraction was evaporated to dryness.
(§2) Then, a part of a fraction containing 16 pmol of each biotinylated oligosaccharide was dissolved in 0.5 ml of the buffer A, and thereafter, each of the resulting solutions and 1 μl (2 pmol) of streptavidin-conjugated alkaline phosphatase [manufactured by Promega] were incubated at 4° C. overnight.
(§3) Each of the resulting products was 3-fold diluted with the buffer A respectively. […] Binding was determined by measuring absorbance at 620 nm using Blue Phos™ substrate. […]

Assay [2] relates to P-selectin-Ig. Put plainly: Binding of biotinylated oligosaccharide fraction (streptavidin-alkaline phosphatase) to P-selectin-Ig. As to conditions: FIG. 7 panel D; absorbance at 620 nm. As for the experimental part: as §1, §2, §3
Assay [3] addresses T2, γ-interferon inducible protein-10 (Homo sapiens, UniProt P02778). Briefly: Binding of biotinylated oligosaccharide fraction (streptavidin-alkaline phosphatase) to IP-10. As to conditions: FIG. 7 panel D; absorbance at 620 nm. As for the experimental part: as §1, §2, §3
Assay [4] addresses T3, stromal cell-derived factor-1β (Homo sapiens, UniProt P48061).
T3 construct: purchased Pepro Tech
Put plainly: Binding of biotinylated oligosaccharide fraction (streptavidin-alkaline phosphatase) to SDF-1β. As to conditions: FIG. 7 panel D; absorbance at 620 nm. The procedure: as §1, §2, §3

Assay [5] relates to secondary lymphoid tissue chemokine. Briefly: Binding of biotinylated oligosaccharide fraction (streptavidin-alkaline phosphatase) to SLC. The settings on record: FIG. 7 panel D; absorbance at 620 nm. The procedure: as §1, §2, §3
The target in assay [6] is T4, platelet factor 4 (Homo sapiens, UniProt P02776).
T4 sequence (P02776 32-101): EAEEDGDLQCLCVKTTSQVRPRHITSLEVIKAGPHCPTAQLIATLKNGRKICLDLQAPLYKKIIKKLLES
Put plainly: Binding of biotinylated oligosaccharide fraction (streptavidin-alkaline phosphatase) to PF4. As to conditions: FIG. 7 panel D; absorbance at 620 nm. The procedure: as §1, §2, §3

The subject of assay [7] is secondary lymphoid tissue chemokine. Put plainly: Sandwich-type ELISA, versican binding to SLC. The settings on record: FIG. 4 panel B. As for the experimental part: (§4) ACHN cells were cultured for 2 days in the presence or absence of 100 mM sodium chlorate in RPMI 1640 containing 10% by weight of bovine fetal serum. After the conditioned medium was removed, cells were further cultured for 4 days in a serum-free medium, EX-CELL 610 HSF [manufactured by JRH Bioscience] in the presence or absence of 100 mM sodium chlorate. The conditioned medium was recovered, and spun at 10,000×g at 4° C. for 15 minutes to obtain each of a sodium chlorate-treated conditioned medium and sodium chlorate-untreated conditioned medium.
(§5) Binding between each of the resulting low-sulfated versican and intact versican, and chemokine was examined by sandwich-type enzyme-linked immunosorbent assay. […]
(§6) A conditioned medium of sodium chlorate-treated ACHN cells or a conditioned medium of sodium chlorate-untreated ACHN cells was added to a well of the resulting plate, followed by incubation for 1 hour. […] Binding was determined by measuring absorbance at 620 nm using alkaline phosphatase-conjugated streptavidin and Blue Phos™ substrate. […]

Assay [8] addresses T5, C-terminal truncated secondary lymphoid tissue chemokine (Homo sapiens, UniProt O00585).
T5 construct: gift: Dr. Melissa Swoop Wills, Vertex Pharmaceutical Co
T5 sequence (O00585 24-102 limits assumed): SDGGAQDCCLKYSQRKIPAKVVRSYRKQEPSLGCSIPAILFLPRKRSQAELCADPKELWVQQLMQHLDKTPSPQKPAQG
Briefly: Sandwich-type ELISA, versican binding to SLC-T. The settings on record: FIG. 4 panel B. As for the experimental part:
as §4, §5, §6
For orientation: An ELISA detects its analyte on a solid surface through an enzyme-linked reagent.

Assay [9] concerns CD44-Ig. Briefly: Sandwich-type ELISA, versican binding to CD44-Ig. Details: species or system human. The settings on record: FIG. 4 panel B. As for the experimental part: as §4, §5, §6
Sequence of CD44-Ig (P16070 21-178 limits assumed): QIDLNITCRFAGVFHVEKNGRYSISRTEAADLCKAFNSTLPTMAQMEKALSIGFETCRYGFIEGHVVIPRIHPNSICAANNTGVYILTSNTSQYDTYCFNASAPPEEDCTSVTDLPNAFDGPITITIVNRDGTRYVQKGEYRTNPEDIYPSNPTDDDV
The target of assay [10] is T2, γ-interferon inducible protein-10. Put plainly: Sandwich-type ELISA, versican binding to IP-10. The settings on record: FIG. 4 panel B. The procedure: as §4, §5, §6
In assay [11] the target is T3, stromal cell-derived factor-1β. Put plainly: Sandwich-type ELISA, versican binding to SDF-1β. As to conditions: FIG. 4 panel B. As for the experimental part:
as §4, §5, §6

In assay [12] the test system is anti-versican monoclonal antibody 2B1. Briefly: Sandwich-type ELISA, versican binding to antibody 2B1. The settings on record: FIG. 4 panel B. As for the experimental part: as §4, §5, §6
Assay [13] deals with T1, L-selectin-Ig. Briefly: Sandwich-type ELISA, versican binding to L-selectin-Ig. The settings on record: FIG. 4 panel B. The procedure:
as §4, §5, §6

In assay [14] the test system is P-selectin-Ig. Briefly: Sandwich-type ELISA, versican binding to P-selectin-Ig. As to conditions: FIG. 4 panel B. As for the experimental part: as §4, §5, §6
For assay [15], the target named is T6, stromal cell-derived factor-1α (Homo sapiens, UniProt P48061).
T6 construct: purchased Pepro Tech
Briefly: Sandwich-type ELISA, versican binding to SDF-1α. The settings on record: FIG. 4 panel B. As for the experimental part:
as §4, §5, §6

Assay [16] concerns the target T4, platelet factor 4. Briefly: Sandwich-type ELISA, versican binding to PF4. As to conditions: FIG. 4 panel B. As for the experimental part: as §4, §5, §6
Assay [17] has as its system CD44-Ig. Put plainly: Binding inhibition assay (ELISA), biotinylated versican to CD44-Ig, various concentrations. Details: species or system human. As to conditions: FIG. 2 panel C. The procedure: (§7) Inhibition assay of binding between versican and each of L-selectin, P-selectin and CD44 was performed as follows. First, each well on a 96 well flat bottom microtiter plate (Coster EIA/RIA plate No. 3690) was coated with L-selectin-Ig (3 μg/ml), P-selectin-Ig (4 μg/ml) or CD44-Ig (0.25 μg/ml) by a conventional procedure. […] The plate was incubated at room temperature for 2 hours. Thereafter, the plate was washed with the buffer A, and enzyme-linked immunosorbent assay was performed in the same manner as described in Kawashima, H. et al. [J. Biol. Chem., 275, 35448-35456 (2000)]. Binding was determined by measuring absorbance at 620 nm using alkaline phosphatase-conjugated streptavidin and Blue Phos™ substrate.

Assay [18] relates to P-selectin-Ig. Put plainly: Binding inhibition assay (ELISA), biotinylated versican to P-selectin-Ig, various concentrations. The settings on record: dose-dependent, FIG. 2 panel B. The procedure: as §7
Assay [19] deals with T1, L-selectin-Ig. Put plainly: Binding inhibition assay (ELISA), biotinylated versican to L-selectin-Ig, various concentrations. The settings on record: dose-dependent, FIG. 2 panel A. The procedure:
as §7

The subject of the next assay is E-selectin-Ig. Briefly: Immunoprecipitation of versican from ACHN conditioned medium with E-selectin-Ig. The format is binding. As to conditions: FIG. 1 lanes 13 and 14. As for the experimental part: ACHN cells were pre-incubated at 37° C. for 6 hours in RPMI 1640 containing 10% by weight of bovine fetal serum in the presence or absence of 30 mM sodium chlorate. A confluent monolayer of the resulting ACHN cells was labeled by incubation for 18 hours in the presence or absence of 30 mM sodium chlorate, in a medium of either of:
Immunoprecipitation was performed as follows, according to the method described in the publication of Kawashima, H. et al. [Int. Immunol., 11, 393-405 (1999); all teachings of which are hereby incorporated by reference] except that beads were washed using buffer A (0.05% Tween 20, 20 mM HEPES-NaOH, 0.15M NaCl, 1 mM CaCl2, 1 mM MgCl2, pH6.8).
Each of the antibody and the Ig chimera shown in FIG. 1 (equivalent to 10 μg) was coupled to Protein A-Sepharose column (equivalent to 10 μL) by a conventional method, to obtain antibody-coupled Protein A-Sepharose or Ig chimera-coupled Protein A-Sepharose. […]
Thereafter, the beads were washed with the buffer A, to obtain precipitates. The resulting precipitates were subjected to SDS-agarose-PAGE, and thereafter, signal ascribed to ^35S label on a gel was detected by autoradiography.

The target of a further assay is monomeric L-selectin. As to conditions: immobilized ligand; cited from earlier work.

T1 sequence (P14151 with tags, fused parts or gaps limits assumed): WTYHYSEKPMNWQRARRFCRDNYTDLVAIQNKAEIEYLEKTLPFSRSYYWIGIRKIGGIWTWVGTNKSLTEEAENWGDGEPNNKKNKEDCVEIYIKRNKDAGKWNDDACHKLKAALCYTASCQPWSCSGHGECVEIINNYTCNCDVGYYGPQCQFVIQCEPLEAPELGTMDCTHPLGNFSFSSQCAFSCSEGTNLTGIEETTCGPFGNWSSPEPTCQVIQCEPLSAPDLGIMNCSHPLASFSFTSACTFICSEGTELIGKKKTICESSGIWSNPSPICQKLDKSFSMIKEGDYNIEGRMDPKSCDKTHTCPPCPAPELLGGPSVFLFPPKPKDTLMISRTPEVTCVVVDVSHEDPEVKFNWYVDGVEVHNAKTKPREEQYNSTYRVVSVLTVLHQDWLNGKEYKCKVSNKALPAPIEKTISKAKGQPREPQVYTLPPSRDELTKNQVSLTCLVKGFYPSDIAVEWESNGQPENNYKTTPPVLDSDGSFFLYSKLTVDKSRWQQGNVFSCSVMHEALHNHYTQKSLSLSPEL

“GlcAβ1-3GalNAc(4,6-O-disulfate)β1-4GlcAβ1-3GalNAc(4,6-O-disulfate) [fraction e-2]”: on L-selectin-Ig [1], the “binding of biotinylated oligosaccharide fraction to L-selectin-Ig” value is reported as “bound”. Moreover, the “binding of biotinylated oligosaccharide fraction to P-selectin-Ig” value in the assay with P-selectin-Ig [2] is recorded as “bound”. Moreover, the “binding of biotinylated oligosaccharide fraction to γ-interferon inducible protein-10” value in assay [3] is “bound”. Also, the “binding of biotinylated oligosaccharide fraction to stromal cell-derived factor-1β” value in assay [4] is recorded as “bound”. Moreover, the “binding of biotinylated oligosaccharide fraction to secondary lymphoid tissue chemokine” value in assay [5] is “bound”.

“GlcAβ1-3GalNAc(4,6-O-disulfate)β1-4GlcAβ1-3GalNAc(4-O-sulfate) [fraction e-1]”: the “binding of biotinylated oligosaccharide fraction to L-selectin-Ig” value on L-selectin-Ig [1] is “did not bind”. Further, the “binding of biotinylated oligosaccharide fraction to platelet factor 4” value at platelet factor 4 [6] was “moderately bound”. The “binding of biotinylated oligosaccharide fraction to P-selectin-Ig” value in the assay with P-selectin-Ig [2] is reported as “did not bind”. In assay [3], the “binding of biotinylated oligosaccharide fraction to γ-interferon inducible protein-10” value is “did not bind”. The “binding of biotinylated oligosaccharide fraction to stromal cell-derived factor-1β” value in assay [4] was “did not bind”. Besides, the “binding of biotinylated oligosaccharide fraction to secondary lymphoid tissue chemokine” value in assay [5] is recorded as “did not bind”.

Consider “intact versican: versican from conditioned medium of sodium chlorate-untreated ACHN cells”, for which the “binding to secondary lymphoid tissue chemokine” value in [7] was “remarkably bound”. The “binding to recombinant truncated-type secondary lymphoid tissue chemokine” value in assay [8] is listed as “scarcely bound”. Further, the “binding to CD44-Ig” value in the assay on CD44-Ig [9] is listed as “bound”. For the same molecule, the “binding to γ-interferon inducible protein-10” value in assay [10] is reported as “remarkably bound”. Also, the “binding to stromal cell-derived factor-1β” value in assay [11] is given as “remarkably bound”. For the same molecule, in [12], the “binding to anti-versican monoclonal antibody 2B1” value is recorded as “bound”. The “binding to L-selectin-Ig” value with L-selectin-Ig [13] is listed as “bound”. Moreover, the “binding to P-selectin-Ig” value with P-selectin-Ig [14] was “bound”. Moreover, in assay [15], the “binding to stromal cell-derived factor-1α” value was “did not bind”. Further, the “binding to platelet factor 4” value with platelet factor 4 [16] is reported as “remarkably bound”.

As to keratan sulfate, the “inhibition of binding between biotinylated versican and CD44-Ig” value in the assay on CD44-Ig [17] was “not inhibited”. Further, in the assay with P-selectin-Ig [18], the “inhibition of binding between biotinylated versican and P-selectin-Ig” value was “not inhibited”. Moreover, at L-selectin-Ig [19], the “inhibition of binding between biotinylated versican and L-selectin-Ig” value is given as “not inhibited”.

Consider “low-sulfated versican: versican from conditioned medium of ACHN cells treated with 100 mM sodium chlorate, mainly unsulfated CS/DS chain”, for which the “binding to recombinant truncated-type secondary lymphoid tissue chemokine” value in assay [8] was “scarcely bound”. Further, in the assay with CD44-Ig [9], the “binding to CD44-Ig” value was “bound”. Moreover, the “binding to anti-versican monoclonal antibody 2B1” value in [12] is reported as “bound”. Besides, the “binding to stromal cell-derived factor-1α” value in assay [15] was “did not bind”.

As for “unsulfated versican: versican from ACHN cells treated with 30 mM sodium chlorate”, in the assay with E-selectin-Ig, the “interaction with E-selectin-Ig” value is “did not interact”.

B1: GlyCAM-1: known ligand of L-selectin (protein, UniProt Q02596 20-151, looked up)
Glycosylation-dependent cell …: LPGSKDELQMKTQPTDAIPAAQSTPTSYTSEESTSSKDLSKEPSIFREELISKDNVVIESTKPENQEAQDGLRSGSSQLEETTRPTTSAATTSEENLTKSSQTVEEELGKIIEGFVTGAEDIISGASRITKS
As to B1, on monomeric L-selectin, the Kd (in general, the concentration at which binding is half-saturated) was 108 µM and the association rate was ≥ 10^5 M^−1s^−1.
